Measured values published in patent publication US9925168B2, “Preparation of micronized particles of an antimuscarinic compound by hydrodynamic cavitation” (CHIESI FARMACEUTICI S.P.A., priority 2016, dated 2018).

Columns and labels:
[1] = Particle size by laser light diffraction (Sympatec Dry Dispersion Size Analyzer); assay type: physicochemical; parameters: d[v,10] / d[v,50] / d[v,90]: unit not given here; conditions: for Span: Span=[d(v,0.9)-d(v,0.1)]/d(v,0.5); for d[v,10] / d[v,50] / d[v,90]: average of triplicate
Experimental: The particle size was determined by Laser light diffraction using the Sympatec Dry Dispersion Size Analyzer (Clausthal-Zellerfeld, Germany).
The powder was dispersed for two measurement conditions at an air pressure of 1 and 4 bar.
The average d[v,10], d[v,50], d[v,90] values were calculated from triplicate measurements. The span was calculated using the following equation: Span=[d(v,0.9)−d(v,0.1)]/d(v,0.5)

[2] = Physical stability (particle size growth) upon storage; assay type: physicochemical; conditions: at least three months, ambient conditions (22±2° C. and 60% relative humidity)
Excerpt: The physical stability shall be measured by using a Sympatec Dry Dispersion Size Analyzer, while the chemical stability shall be determined according to known method such as HPLC.

C[N+]1(C)CCC(OC(=O)C(O)(c2ccccc2)C2CCCC2)C1.[Br-] (racemic) [Example 1, (3S,2′R), (3R,2′S)-3-[(Cyclopentylhydroxyphenylacetyl)oxy]-1,1-dimethylpyrrolidinium bromide racemic mixture]
Span ([1]; dispersion pressure 1.0 bar): 1.50
d[v,10] ([1]; dispersion pressure 1.0 bar): 0.81
d[v,50] ([1]; dispersion pressure 1.0 bar): 4.17
d[v,90] ([1]; dispersion pressure 1.0 bar): 7.05
Span ([1]; dispersion pressure 4.0 bar): 2.19
d[v,10] ([1]; dispersion pressure 4.0 bar): 0.43
d[v,50] ([1]; dispersion pressure 4.0 bar): 2.29
d[v,90] ([1]; dispersion pressure 4.0 bar): 5.45
growth of the particle size upon storage [2]: No significant growth of the particle size
